{
  "source": "patent US12589158B2",
  "about": "(priority 2022, dated 2026)",
  "key": {"[1]": {"test_system": "db/db mice", "experiment": "Pharmacodynamics in db/db mice, single subcutaneous administration (blood glucose)", "type": "in vivo", "conditions": "Group 1, single s.c. 10 nmol/kg, longest time with random blood glucose P<0.05 vs. vehicle", "procedure": "The “inhibition of blood glucose AUC” as disclosed in the present invention is the reduction percentage of blood glucose AUC in the group taken the test compound as compared with the group taken the Vehicle. Inhibition of blood glucose AUC=(blood glucose AUCVehicle-blood glucose AUCtest compound)/blood glucose AUCVehicle.\nIn this study, 8-9 week old male db/db mice are used. The db/db mice are placed in an individual ventilated cage (IVC) facility with a controlled temperature (20-26° C.) and humidity (40-70%) and a controlled 12h: 12 h light-dark cycle. The mice received food and water ad libitum. Blood is sampled at the tail tip, and the fasting blood glucose is measured by a Roche blood glucose meter. The mice are randomly divided into groups according to the initial blood glucose and initial body weight (n=6/group), and each group had similar body weight and blood glucose.\nAfter a single subcutaneous administration, the random blood glucoses are recorded at the set time point (0 to 120 hours, the recording of the random blood glucose is stopped until there is no difference between the random blood glucose of the compound and that of the vehicle group), and the daily body weight and food intake are also recorded. The data results are statistically analyzed using GraphPad Prism8, and the statistical differences among the groups are analyzed following a T-Test. […]"}, "[2]": {"target": "T1, human GLP-1 receptor (Homo sapiens, UniProt P43220)", "T1 construct": "expressed in transfected cells; crude membranes", "T1 sequence (P43220 24-463)": "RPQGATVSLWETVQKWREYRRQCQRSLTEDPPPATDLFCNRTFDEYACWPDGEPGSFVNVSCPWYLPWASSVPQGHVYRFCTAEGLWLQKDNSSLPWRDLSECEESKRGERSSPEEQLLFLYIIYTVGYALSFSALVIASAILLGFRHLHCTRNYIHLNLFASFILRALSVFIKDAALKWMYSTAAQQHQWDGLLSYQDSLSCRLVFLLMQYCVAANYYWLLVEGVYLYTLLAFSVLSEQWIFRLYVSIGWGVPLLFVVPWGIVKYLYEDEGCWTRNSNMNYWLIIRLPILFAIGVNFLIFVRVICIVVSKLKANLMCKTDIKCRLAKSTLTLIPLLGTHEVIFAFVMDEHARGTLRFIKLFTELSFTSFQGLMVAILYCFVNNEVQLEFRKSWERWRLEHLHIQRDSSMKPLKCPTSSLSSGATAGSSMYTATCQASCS", "experiment": "In vitro binding activity to human GLP-1 receptor ([125I]GLP-1, crude cellular membranes)", "conditions": "ratio of the Ki value of the endogenous ligand to the Ki value of the test compound; larger = stronger binding", "procedure": "89 μL of membrane dissolved in binding buffer (50 mM Hepes, pH 7.4, 5 mM MgCl2, 5 mM EDTA, 0.005% TWEEN, 0.005% HSA) is transferred to a 96-well test plate (5 μg/well). The compound is serially diluted in DMSO, and then, 1 μL of the diluted compound or 100% DMSO is added to the test plate containing the membrane solution. 10 μL of [^125I] […] The test plate is left at room temperature for 90 minutes. The membrane complexes are harvested into a GF/B plate pre-coated with 0.5% PEI by using a Cell Harvester, and washed for 3 times with 500 μL of pre-cooled elution buffer (50 mM Hepes, pH 7.4, 500 mM NaCl) at 4° C. After drying at 37° C. for 2 hours, 50 μL of scintillation fluid is added to each well. The plate is read with a MicroBeta2 scintillation counter after sealing and settling for at least 1 hour so as to determine the membrane bound radioligand level.\n(§1) The absolute IC50 concentration of the compound is derived by non-linear regression of the binding percent of [^125I] […] The IC50 concentration is converted to Ki (Ki is the inhibition constant) using the Cheng-Prusoff equation."}, "[3]": {"target": "T2, human GIP receptor (Homo sapiens, UniProt P48546)", "T2 construct": "expressed in transfected cells; crude membranes", "T2 sequence (P48546 22-466)": "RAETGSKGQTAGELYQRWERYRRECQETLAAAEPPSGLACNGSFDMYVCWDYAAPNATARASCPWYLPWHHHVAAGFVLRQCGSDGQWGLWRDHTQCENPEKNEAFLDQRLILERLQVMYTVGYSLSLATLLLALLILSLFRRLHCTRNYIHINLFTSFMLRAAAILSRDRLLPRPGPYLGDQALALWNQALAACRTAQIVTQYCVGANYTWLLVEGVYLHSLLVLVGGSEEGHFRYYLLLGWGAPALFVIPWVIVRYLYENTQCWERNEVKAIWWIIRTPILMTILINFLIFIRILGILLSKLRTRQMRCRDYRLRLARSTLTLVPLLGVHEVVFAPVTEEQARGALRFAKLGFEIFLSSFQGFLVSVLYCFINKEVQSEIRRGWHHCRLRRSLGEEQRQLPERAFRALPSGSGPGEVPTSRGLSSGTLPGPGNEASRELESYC", "experiment": "In vitro binding activity to human GIP receptor ([125I]GIP, crude cellular membranes)", "conditions": "ratio of the Ki value of the endogenous ligand to the Ki value of the test compound; larger = stronger binding", "procedure": "The compound is serially diluted in DMSO, and then, 2 μL of the diluted compounds or 100% DMSO is added to the test plate containing the membrane solution. […] The test plate is left at room temperature for 90 minutes. […] After drying at 37° C. for 2 hours, 50 μL of scintillation fluid is added to each well. The plate is read with a MicroBeta2 scintillation counter after sealing and settling for at least 1 hour so as to determine the membrane bound radioligand level.\nas §1"}},
  "note": "Where a SMILES comes first, the peptide text is derived from it.",
  "data": [
    {"smiles": "CC[C@H](C)[C@H](NC(=O)C(C)(C)NC(=O)[C@H](Cc1ccc(O)cc1)NC(=O)[C@H](CC(=O)O)NC(=O)[C@H](CO)NC(=O)[C@@H](NC(=O)C(C)(Cc1ccccc1)NC(=O)[C@@H](NC(=O)CNC(=O)[C@H](CCC(=O)O)NC(=O)C(C)(C)NC(=O)[C@@H](N)Cc1ccc(O)cc1)[C@@H](C)O)[C@@H](C)O)C(=O)NC(C)(C)C(=O)N[C@@H](CC(C)C)C(=O)N[C@@H](CC(=O)O)C(=O)N[C@@H](CCCCN)C(=O)N[C@@H](CCC(N)=O)C(=O)N[C@@H](C)C(=O)N[C@@H](CCC(N)=O)C(=O)N[C@@H](C)C(=O)N[C@@H](CCC(=O)O)C(=O)N[C@@H](Cc1ccccc1)C(=O)N[C@H](C(=O)N[C@@H](CCCCN)C(=O)N[C@@H](Cc1c[nH]c2ccccc12)C(=O)N[C@@H](CC(C)C)C(=O)N[C@@H](CC(C)C)C(=O)N[C@@H](CCCCN)C(=O)NCC(=O)NCC(=O)N1CCC[C@H]1C(=O)N[C@@H](CO)C(=O)N[C@@H](CO)C(=O)NCC(=O)N[C@@H](C)C(=O)N1CCC[C@H]1C(=O)N1CCC[C@H]1C(=O)N1CCC[C@H]1C(=O)N[C@@H](CO)C(=O)N[C@@H](CCCCN)C(N)=O)C(C)C", "note": "(stereo partly drawn) [P001, reference compound] (HELM PEPTIDE1{Y.[Aib].E.G.T.[CC(Cc1ccccc1)(N[*:1])C(=O)[*:2]].T.S.D.Y.[Aib].I.[Aib].L.D.K.Q.A.Q.A.E.F.V.K.W.L.L.K.G.G.P.S.S.G.A.P.P.P.S.K.[am]}$$$$V2.0; N-terminus assumed)", "values": [
      {"measurement": "Hypoglycemic Duration", "setting": "[1]", "value": 32, "unit": "h"},
      {"measurement": "GLP-1R Ki ratio", "setting": "[2]", "value": 19.52},
      {"measurement": "GIPR Ki ratio", "setting": "[3]", "value": 8.82}
    ]}
  ]
}
